{"source": "patent US20220184072A1", "about": "(priority 2019, published 2022)", "key": {"ZFD rats": {"tested_on": "ZFD rats", "assay": "ZFD rat model, electronic von Frey (paw pressure)", "format": "in vivo", "parameters": "unit not given here", "experimental": "Forty (40) adult, male […] rats weighing 225-275 g at the start of the study are used in these experiments, including ten (10) lean, controls and thirty (30) ZFD rats. Animals are maintained in the vivarium at a controlled room temperature between 65 to 85° F. and a relative humidity between 30-70% under illumination by fluorescent lighting on a daily 12-hour light/dark cycle. All animals are maintained 2 per cage with free access to dry food and water.\nPaw pressure response threshold: This test applies greater force to the plantar hind paw than manual von Frey filaments and may be equated to pressure-induced pain such as that described by diabetic subjects upon standing and walking. Hyperalgesia to this measure develops over several weeks in ZFD rats such that this test can give an assessment of hyperalgesia and drug efficacy that differs from the allodynia measured by manual von Frey filaments. The method is described in detail by Lee-Kubil, Mixcoati-Zecuatl, Jolivalt, & Calcutt, Animal Models of Diabetes-Induced Neuropathic Pain, CURRENT TOPICS IN BEHAVIORAL NEUROSCIENCES 20: 147-170 (2014).\nDosing procedures. Zucker Fatty Diabetic rats are found to develop hyperglycemia over 6-8 weeks. […] Upon confirmation of the presence of painful neuropathy, rats are tested for three measures of hyperalgesia: cold allodynia threshold, tactile hyperalgesia (von Frey filaments), and pressure responses measured by a mechanical von Frey device. All rats are tested in all three assays and all rats receive each of four (4) pre-treatments administered subcutaneously (s.c.) in a vehicle of 10% Trappsol in water. All rats receive treatments in the same order, as follows: vehicle, 1 mg/kg Compound of Ex. 1, 3 mg/kg Compound of Ex. 1, and 10 mg/kg Compound of Ex. 1. Rats receive pre-treatments 30 minutes prior to the start of testing. Hyperalgesia/allodynia measures are recorded from each rat at baseline (0 time), then 1, 2, 3, 4, and 6 h after treatment.\nAfter the completion of testing of all rats at all dose/conditions for each assay (cold, tactile, and pressure responses) rats are out-fitted with cannulas for intrathecal (i.t.) application of vehicle or Compound of Ex. 1 (1, 3 or 10 μg) directly to spinal cord. All rats are then re-tested in each of the tree assays at each of the 4 pretreatment conditions/doses."}, "C57 mice": {"tested_on": "C57 mice", "details": "mouse, in vivo"}, "NR2B": {"tested_on": "NR2B", "assay": "CNS phosphoprotein profile, NR2B", "format": "in vivo", "details": "mice nucleus accumbens, 3 mg/kg, 30-60 minutes", "experimental": "(§1) A comprehensive molecular phosphorylation study is also carried out to examine the central nervous system (CNS) profile of the compound of Example 1. The extent of protein phosphorylation for selected key central nervous system proteins is measured in mice nucleus accumbens.\n(§2) Mice were killed 30 minutes to 2 hours post-injection by focused microwave cranial irradiation, which preserves brain phosphoprotein as it exists at the time of death. Nucleus accumbens was then dissected from each mouse brain, sliced and frozen in liquid nitrogen. Samples were further prepared for phosphoprotein analysis via SDS-PAGE electrophoresis followed by phosphoprotein-specific immunoblotting, as described in Zhu H, et al., Brain Res. 2010 Jun. 25; 1342:11-23. Phosphorylation at each site was quantified, normalized to total levels of the protein (non-phosphorylated), and expressed as percent of the level of phosphorylation in vehicle-treated control mice."}, "STZ-diabetic rats [1]": {"tested_on": "STZ-diabetic rats", "assay": "STZ-rat model, mechanical (pressure) stimuli", "format": "in vivo", "experimental": "(§3) The compound of Example 1 is also tested in an STZ-rat model of neuropathic pain. Briefly, adult female rats are made diabetic by treatment with streptozotocin (STZ), an alkylating neoplastic agent which is particularly toxic to the insulin-producing beta cells of the pancreas. The resulting type-I diabetes in the rats leads to the development of diabetic neuropathy over a 3 to 6-week period. […] Once diabetic neuropathy has been induced, the rats may be treated to determine the analgesic effect of compounds.\nPaw mechanical response threshold is also a clinical assessment of allodynia to light touch, but it relies on the observed response to pressure (force) applied to a paw.\nThis test is performed by measuring the static applied force threshold (pressure) for paw removal, as described above."}, "STZ-diabetic rats [2]": {"tested_on": "STZ-diabetic rats", "assay": "STZ-rat model, tactile stimuli (von Frey filaments)", "format": "in vivo", "experimental": "as §3\nPaw tactile response threshold is a clinical assessment of allodynia to light touch. It can be measured using manual von Frey filaments (as described in Otto et al., Pain, 101:187-92 (2003). A series of von Frey filaments with logarithmically increasing stiffness are used, and the rats' response to each filament is observed. The results are used to calculate a 50%-withdrawal threshold (an amount of stiffness in the filament resulting in a 50% probability of withdrawal of the rat's paw).\nThis test is performed using the von Frey filaments as described above."}, "[3]": {"tested_on": "TH (tyrosine hydroxylase)", "assay": "CNS phosphoprotein profile, TH", "format": "in vivo", "details": "mice nucleus accumbens; Example 1 3 mg/kg at 30 or 60 minutes; haloperidol 2 mg/kg", "experimental": "as §1, §2"}}, "note": "“And” between values parts separate entries of the source, which are not always exact repeats. Identical values can stand only once. Like-named read-outs stand apart in the source and are kept apart here.", "data": [{"smiles": "O=C1CN2c3c(cccc3[C@@H]3CN(CCCOc4ccc(F)cc4)CC[C@@H]32)N1", "note": "[Example 1, (6bR,10aS)-8-(3-(4-fluorophenoxy)propyl)-6b,7,8,9,10,10a-hexahydro-1H-pyrido[3′,4′:4,5]pyrrolo[1,2,3-de]quinoxalin-2(3H)-one]", "values": [{"measurement": "Electronic von Frey (paw pressure response)", "setting": "ZFD rats; Control rats, 10 μg i.t., 0 hr", "result": 63.68}, {"measurement": "Electronic von Frey (paw pressure response)", "setting": "ZFD rats; Control rats, 10 μg i.t., 1 hr", "result": 60.91}, {"measurement": "Electronic von Frey (paw pressure response)", "setting": "ZFD rats; Control rats, 10 μg i.t., 2 hr", "result": 62.10}, {"measurement": "Electronic von Frey (paw pressure response)", "setting": "ZFD rats; Control rats, 10 μg i.t., 4 hr", "result": 59.56}, {"measurement": "Electronic von Frey (paw pressure response)", "setting": "ZFD rats; Control rats, 10 mg/kg s.c., 0 hr", "result": 58.64}, {"measurement": "Electronic von Frey (paw pressure response)", "setting": "ZFD rats; Control rats, 10 mg/kg s.c., 1 hr", "result": 55.73}, {"measurement": "Electronic von Frey (paw pressure response)", "setting": "ZFD rats; Control rats, 10 mg/kg s.c., 2 hr", "result": 60.74}, {"measurement": "Electronic von Frey (paw pressure response)", "setting": "ZFD rats; Control rats, 10 mg/kg s.c., 4 hr", "result": 62.89}, {"measurement": "Electronic von Frey (paw pressure response)", "setting": "ZFD rats; ZFD rats, 1 μg i.t., 0 hr", "result": 24.76}, {"measurement": "Electronic von Frey (paw pressure response)", "setting": "ZFD rats; ZFD rats, 1 μg i.t., 1 hr", "result": 34.77}, {"measurement": "Electronic von Frey (paw pressure response)", "setting": "ZFD rats; ZFD rats, 1 μg i.t., 2 hr", "result": 30.09}, {"measurement": "Electronic von Frey (paw pressure response)", "setting": "ZFD rats; ZFD rats, 1 μg i.t., 4 hr", "result": 28.19}, {"measurement": "Electronic von Frey (paw pressure response)", "setting": "ZFD rats; ZFD rats, 3 μg i.t., 0 hr", "result": 33.23}, {"measurement": "Electronic von Frey (paw pressure response)", "setting": "ZFD rats; ZFD rats, 3 μg i.t., 1 hr", "result": 53.94}, {"measurement": "Electronic von Frey (paw pressure response)", "setting": "ZFD rats; ZFD rats, 3 μg i.t., 2 hr", "result": 50.17}, {"measurement": "Electronic von Frey (paw pressure response)", "setting": "ZFD rats; ZFD rats, 3 μg i.t., 4 hr", "result": 39.95}, {"measurement": "Electronic von Frey (paw pressure response)", "setting": "ZFD rats; ZFD rats, 10 μg i.t., 0 hr", "result": 24.68}, {"measurement": "Electronic von Frey (paw pressure response)", "setting": "ZFD rats; ZFD rats, 10 μg i.t., 1 hr", "result": 46.37}, {"measurement": "Electronic von Frey (paw pressure response)", "setting": "ZFD rats; ZFD rats, 10 μg i.t., 2 hr", "result": 45.01}, {"measurement": "Electronic von Frey (paw pressure response)", "setting": "ZFD rats; ZFD rats, 10 μg i.t., 4 hr", "result": 32.33}, {"measurement": "Electronic von Frey (paw pressure response)", "setting": "ZFD rats; ZFD rats, 1 mg/kg s.c., 0 hr", "result": 28.36}, {"measurement": "Electronic von Frey (paw pressure response)", "setting": "ZFD rats; ZFD rats, 1 mg/kg s.c., 1 hr", "result": 32.99}, {"measurement": "Electronic von Frey (paw pressure response)", "setting": "ZFD rats; ZFD rats, 1 mg/kg s.c., 2 hr", "result": 27.35}, {"measurement": "Electronic von Frey (paw pressure response)", "setting": "ZFD rats; ZFD rats, 1 mg/kg s.c., 4 hr", "result": 24.67}, {"measurement": "Electronic von Frey (paw pressure response)", "setting": "ZFD rats; ZFD rats, 3 mg/kg s.c., 0 hr", "result": 33.72}, {"measurement": "Electronic von Frey (paw pressure response)", "setting": "ZFD rats; ZFD rats, 3 mg/kg s.c., 1 hr", "result": 54.21}, {"measurement": "Electronic von Frey (paw pressure response)", "setting": "ZFD rats; ZFD rats, 3 mg/kg s.c., 2 hr", "result": 58.41}, {"measurement": "Electronic von Frey (paw pressure response)", "setting": "ZFD rats; ZFD rats, 3 mg/kg s.c., 4 hr", "result": 30.01}, {"measurement": "Electronic von Frey (paw pressure response)", "setting": "ZFD rats; ZFD rats, 10 mg/kg s.c., 0 hr", "result": 22.69}, {"measurement": "Electronic von Frey (paw pressure response)", "setting": "ZFD rats; ZFD rats, 10 mg/kg s.c., 1 hr", "result": 56.02}, {"measurement": "Electronic von Frey (paw pressure response)", "setting": "ZFD rats; ZFD rats, 10 mg/kg s.c., 2 hr", "result": 58.15}, {"measurement": "Electronic von Frey (paw pressure response)", "setting": "ZFD rats; ZFD rats, 10 mg/kg s.c., 4 hr", "result": 39.32}, {"measurement": "Mean Behavior Rating (0-4)", "setting": "C57 mice; po, 3 mg/kg", "result": "0.9 and 0.8 and 1.5"}, {"measurement": "Mean Behavior Rating (0-4)", "setting": "C57 mice; sc, 1 mg/kg", "result": "1.0 and 1.9 and 1.1"}, {"measurement": "NR2B phosphorylation at Tyr1472", "setting": "NR2B", "result": "no significant effect"}, {"measurement": "withdrawal force threshold", "setting": "STZ-diabetic rats [1]; 1 mg/kg s.c., 4 hours (peak)", "result": "about 40 g"}, {"measurement": "withdrawal force threshold", "setting": "STZ-diabetic rats [1]; 1 mg/kg s.c., 6 hours", "result": "about 35 g"}, {"measurement": "withdrawal force threshold", "setting": "STZ-diabetic rats [1]; 3 mg/kg s.c., 2 hours (peak)", "result": "about 45 g"}, {"measurement": "withdrawal force threshold", "setting": "STZ-diabetic rats [1]; 3 mg/kg s.c., 6 hours", "result": "about 25 g"}, {"measurement": "withdrawal force threshold", "setting": "STZ-diabetic rats [1]; 10 mg/kg s.c., 1 hour", "result": "about 60 g"}, {"measurement": "withdrawal force threshold", "setting": "STZ-diabetic rats [1]; 10 mg/kg s.c., 2 hours to 4 hours", "result": "45 to 50", "unit": "g"}, {"measurement": "withdrawal force threshold", "setting": "STZ-diabetic rats [1]; 10 mg/kg s.c., 6 hours", "result": "about 35 g"}, {"measurement": "50% withdrawal threshold", "setting": "STZ-diabetic rats [2]; STZ-diabetic rats, 1 mg/kg s.c., 4 hours (peak)", "result": "about 4 g"}, {"measurement": "50% withdrawal threshold", "setting": "STZ-diabetic rats [2]; STZ-diabetic rats, 1 mg/kg s.c., 6 hours", "result": "about 3 g"}, {"measurement": "50% withdrawal threshold", "setting": "STZ-diabetic rats [2]; STZ-diabetic rats, 3 mg/kg s.c., 1 hours", "result": "about 6 g"}, {"measurement": "50% withdrawal threshold", "setting": "STZ-diabetic rats [2]; STZ-diabetic rats, 3 mg/kg s.c., 2 hours (peak)", "result": "~8", "unit": "g"}, {"measurement": "50% withdrawal threshold", "setting": "STZ-diabetic rats [2]; STZ-diabetic rats, 3 mg/kg s.c., 4 hours", "result": "about 3 g"}, {"measurement": "50% withdrawal threshold", "setting": "STZ-diabetic rats [2]; STZ-diabetic rats, 10 mg/kg s.c., 1 hour", "result": "about 9 g"}, {"measurement": "50% withdrawal threshold", "setting": "STZ-diabetic rats [2]; STZ-diabetic rats, 10 mg/kg s.c., 2 hours (peak)", "result": "about 10 g"}, {"measurement": "50% withdrawal threshold", "setting": "STZ-diabetic rats [2]; STZ-diabetic rats, 10 mg/kg s.c., 6 hours", "result": "about 3 g"}, {"measurement": "50% withdrawal threshold", "setting": "STZ-diabetic rats [2]; rat, in vivo, sc, 10 mg/kg", "result": "about 7 g"}, {"measurement": "increase in TH phosphorylation at Ser40", "setting": "[3]", "result": "no significant effect"}]}]}
